What is called mortality is the percentage killed.

The results in this text go back to US8937089B2, “Synergistic mixtures of anthranilamide invertebrate pest control agents” (priority 2004, dated 2015).

Test in all cases: whole plant or invertebrate
Common to all, as to format: in vivo

Series [1] concerns potato leafhopper (Empoasca fabae Harris). The procedure: (§1) Test compounds were formulated using a solution containing 10% acetone, 90% water and 300 ppm X-77® Spreader Lo-Foam Formula non-ionic surfactant containing alkylarylpolyoxyethylene, free fatty acids, glycols and 2-propanol (Loveland Industries, Inc.) to provide the desired concentration in ppm. Formulated test solutions were then applied in 1 mL volumes through a SUJ2 atomizer nozzle with 1/8 JJ custom body (Spraying Systems Co.) positioned 1.27 cm (0.5 inches) above the top of each test unit.
[…] White sand was added to the top of the soil, and one of the primary leaves was excised prior to application. Test compounds were formulated and sprayed with 3 replications as described for Test A. After spraying, the test units were allowed to dry for 1 hour before they were infested with 5 potato leafhoppers (18- to 21-day-old adults). A black, screened cap was placed on the top of each container. The test units were held for 6 days in a growth chamber at 19-21° C. and 50-70% relative humidity.

Series [2] deals with cotton melon aphid (Aphis gossypii Glover). The settings on record: for mortality at 1000 ppm: rate 1000 ppm. Here is the method:
as §1
For evaluating control of cotton melon aphid (Aphis gossypii Glover) through contact and/or systemic means, each test unit consisted of a small open container with a 6- to 7-day-old cotton plant inside. This was pre-infested by placing on a leaf of the test plant 30 to 40 aphids on a piece of leaf excised from a culture plant (cut-leaf method). The larvae moved onto the test plant as the leaf piece desiccated. After pre-infestation, the soil of the test unit was covered with a layer of sand.
Test compounds were formulated and sprayed as described for Test A. The applications were replicated three times. After spraying of the formulated test compounds, each test unit was allowed to dry for 1 hour and then a black, screened cap was placed on top. The test units were held for 6 days in a growth chamber at 19-21° C. and 50-70% relative humidity.

For series [3], the system named is corn planthopper (Peregrines maidis). The procedure: as §1
For evaluating control of corn planthopper (Peregrines maidis) through contact and/or systemic means, each test unit consisted of a small open cylindrical container with a 3- to 4-day-old corn (maize) plant (spike) inside. White sand was added to the top of the soil prior to application. Test compounds were formulated and sprayed with 3 replications as described for Test A. After spraying, the test units were allowed to dry for 1 hour before they were post-infested with 10 to 20 corn planthoppers (18- to 20-day-old nymphs) by sprinkling them onto the sand with a salt shaker. A black, screened cap was placed on the top of each container. The test units were held for 6 days in a growth chamber at 19-21° C. and 50-70% relative humidity.

In series [4] the test system is silverleaf whitefly (Bemisia argentifolii Bellows and Perring). The settings on record: Bemisia argentifolii, in Gossypium hirsutum, Table 2B, read-out: % mortality (obs).
Description: For evaluating control of silverleaf whitefly (Bemisia argentifolii Bellows and Perring) through contact and/or systemic means, each test unit consisted of a small open container with a 12- to 14-day-old cotton plant inside. This was pre-infested by placing test units into cages infested with adult whiteflies so that oviposition on the cotton leaves could occur. The adults were removed from the plants with an air-blast nozzle, and the test units were capped. The test units were then stored 2 to 3 days before spraying.
as §1
The results for all experimental compositions in this test were replicated three times. After spraying of the formulated test composition, each test unit was allowed to dry for 1 hour and the cap removed. The test units were held for 13 days in a growth chamber at 28° C. and 50-70% relative humidity.

In series [5] the test system is western flower thrip (Frankliniella occidentalis Pergande). Here is the method:
as §1
For evaluating control of the western flower thrip (Frankliniella occidentalis Pergande) through contact and/or systemic means, each test unit consisted of a small open container with a 5- to 7-day-old bean (var. Soleil) plant inside.
Test solutions were formulated and sprayed with 3 replications as described for Test A. After spraying, the test units were allowed to dry for 1 hour, 22 to 27 adult thrips were added to each unit and then a black, screened cap was placed on top. The test units were held for 7 days at 25° C. and 45-55% relative humidity.

Series [6] has as its system green peach aphid (Myzus persicae Sulzer). The settings on record: Green Peach Aphid; for mortality at 100 ppm: rate 100 ppm; for mortality at 1000 ppm: rate 1000 ppm. Here is the method:
as §1
For evaluating control of green peach aphid (Myzus persicae Sulzer) through contact and/or systemic means, each test unit consisted of a small open container with a 12- to 15-day-old radish plant inside. This was pre-infested by placing on a leaf of the test plant 30 to 40 aphids on a piece of leaf excised from a culture plant (cut-leaf method). The larvae moved onto the test plant as the leaf piece desiccated. After pre-infestation, the soil of the test unit was covered with a layer of sand.
Test compounds were formulated and sprayed as described in Test A, replicated three times. After spraying of the formulated test compound, each test unit was allowed to dry for 1 hour and then a black, screened cap was placed on top. The test units were held for 6 days in a growth chamber at 19-21° C. and 50-70% relative humidity.

Setting [7] is: Aphis gossypii, read-out: % mortality (obs).
The mark [8] stands for this setting: Corn Plant Hopper, rate 100 ppm, read-out: % mortality (obs).
The mark [9] stands for this setting: Corn Plant Hopper, rate 1000 ppm, read-out: % mortality (obs).
Setting [10] is: Frankliniella occidentalis, 168 h, rate 10 ppm, single compound, spray, 7 days, read-out: % mortality (obs).
The mark [11] stands for this setting: Frankliniella occidentalis, 168 h, rate 100 ppm, single compound, spray, 7 days, read-out: % mortality (obs).
The mark [12] stands for this setting: Myzus persicae, in Raphanus sativus, read-out: % mortality (obs).
Where [13] appears, read: Empoasca fabae, rate 100 ppm, alone, read-out: % mortality (obs).
Setting [14] is: Empoasca fabae, rate 1000 ppm, alone, read-out: % mortality (obs).
The mark [15] stands for this setting: rate 100 ppm, single compound, spray, 7 days.

As for `COC(C)(C)CCC[C@H](C)C/C=C/C(C)=C/C(=O)OC(C)C` (racemic) [Methoprene], in series [1] (in vivo), the “% mortality (obs)” value is 0%.
Take `CC(C)N1C(=O)N(c2ccccc2)CS/C1=N\C(C)(C)C` [Buprofezin]: the mortality at 10 ppm was 34% in series [2] (Aphis gossypii, rate 10 ppm, read-out: % mortality (obs)); 96% in series [3] (Corn Plant Hopper, rate 10 ppm, read-out: % mortality (obs)); 20% in series [5] (setting [10]); 63% in series [6] (Myzus persicae, in Raphanus sativus, rate 10 ppm, read-out: % mortality (obs)); 20% in series [1] (Empoasca fabae, rate 10 ppm, alone, read-out: % mortality (obs)). Further, the mortality at 100 ppm is 30% in series [2] (Aphis gossypii, rate 100 ppm, read-out: % mortality (obs)); 97% in series [3] (setting [8]); 20% in series [5] (setting [11]); 63% in series [6] (setting [12]); 20% in series [1] (setting [13]). For the same molecule, the mortality at 1000 ppm was determined as 36% in series [2] (setting [7]); 98% in series [3] (setting [9]); 96% in series [4] (rate 1000 ppm); 30% in series [5] (Frankliniella occidentalis, 168 h, rate 1000 ppm, single compound, spray, 7 days, read-out: % mortality (obs)); 54% in series [6] (setting [12]); 0% in series [1] (setting [14]). Further, the mortality at 300 ppm in series [4] (rate 300 ppm) was determined as 75%. For the same molecule, in series [4] (rate 500 ppm), the mortality at 500 ppm was 65%.
For `O=C(NC(=O)c1c(F)cccc1F)Nc1cc(Cl)c(OC(F)(F)C(F)F)c(Cl)c1` [Hexaflumuron], the mortality at 30 ppm in series [2] (Aphis gossypii, rate 30 ppm, read-out: % mortality (obs)) was determined as 32%. The mortality at 1000 ppm in series [2] (setting [7]) was 30%; in series [3] (setting [9]), 5%; in series [6] (setting [12]), 6%; in series [1] (setting [14]) it was 13%. Also, the mortality at 3000 ppm in series [2] (Aphis gossypii, rate 3000 ppm, read-out: % mortality (obs)) is 29%; in series [3] (Corn Plant Hopper, rate 3000 ppm, read-out: % mortality (obs)), 4%; in series [6] (Myzus persicae, in Raphanus sativus, rate 3000 ppm, read-out: % mortality (obs)), 13%; in series [1] (Empoasca fabae, rate 3000 ppm, alone, read-out: % mortality (obs)), 27%. The mortality at 100 ppm in series [3] (setting [8]) turned out to be 6%; in series [6] (setting [12]), 8%; in series [1] (setting [13]), 13%. The mortality at 10 ppm in series [4] (rate 10 ppm) stood at 1%. Moreover, the mortality at 60 ppm in series [4] (rate 60 ppm) was 0%. In addition, the mortality at 360 ppm in series [4] (rate 360 ppm) turned out to be 0%.
On to `O=C(NC(=O)c1c(F)cccc1F)Nc1cc(Cl)c(OC(F)(F)C(F)C(F)(F)F)cc1Cl` (stereo not drawn) [Lufenuron], for which the mortality at 0.08 ppm in series [2] (Aphis gossypii, rate 0.08 ppm, read-out: % mortality (obs)) is 28%; in series [3] (Corn Plant Hopper, rate 0.08 ppm, read-out: % mortality (obs)) it was 9%; in series [1] (Empoasca fabae, rate 0.08 ppm, alone, read-out: % mortality (obs)) it was 40%. Also, the mortality at 0.4 ppm stood at 39% in series [2] (Aphis gossypii, rate 0.4 ppm, read-out: % mortality (obs)); 7% in series [3] (Corn Plant Hopper, rate 0.4 ppm, read-out: % mortality (obs)); 53% in series [1] (Empoasca fabae, rate 0.4 ppm, alone, read-out: % mortality (obs)). Also, the mortality at 2 ppm is 58% in series [2] (Aphis gossypii, rate 2 ppm, read-out: % mortality (obs)); 7% in series [3] (Corn Plant Hopper, rate 2 ppm, read-out: % mortality (obs)); 40% in series [1] (Empoasca fabae, rate 2 ppm, alone, read-out: % mortality (obs)). For the same molecule, the mortality at 10 ppm in series [5] (setting [10]) came out at 90%. In series [5] (setting [11]), the mortality at 100 ppm worked out at 80%. For the same molecule, the mortality at 500 ppm in series [5] (Frankliniella occidentalis, 168 h, rate 500 ppm, single compound, spray, 7 days, read-out: % mortality (obs)) came out at 80%. In addition, the mortality at 50 ppm in series [6] (Myzus persicae, in Raphanus sativus, rate 50 ppm, read-out: % mortality (obs)) stood at 34%. Also, in series [6] (Myzus persicae, in Raphanus sativus, rate 250 ppm, read-out: % mortality (obs)), the mortality at 250 ppm was 15%. The mortality at 1000 ppm in series [6] (setting [12]) was determined as 28%.
Consider Abamectin, for which the “% mortality (obs)” value in series [2] (rate 0.08 ppm) was 35%; in series [2] (rate 0.4 ppm), 58%; in series [2] (rate 2 ppm), 100%; in series [3] (Corn Plant Hopper, rate 1.6 ppm) it was 7%; in series [3] (Corn Plant Hopper, rate 8 ppm), 93%; in series [3] (Corn Plant Hopper, rate 40 ppm), 100%. Also, the “% mortality (obs)” value in series [5] (rate 1 ppm, single compound, spray, 7 days) is given as 100%; in series [5] (rate 10 ppm, single compound, spray, 7 days) it was 100%; in series [5] (setting [15]) it was 100%; in series [6] (rate 0.08 ppm) it was 47%; in series [6] (rate 0.4 ppm), 100%; in series [6] (rate 2 ppm) it was 100%. The “% mortality (obs)” value stood at 47% in series [1] (rate 10 ppm, alone); 100% in series [1] (rate 100 ppm, alone); 100% in series [1] (rate 1000 ppm, alone).
Take Clothianidin: the “% mortality (obs)” value in series [2] (rate 0.08 ppm) is 75%; in series [2] (rate 0.4 ppm), 91%; in series [2] (rate 2 ppm) it was 99%; in series [3] (Corn Plant Hopper, rate 10 ppm), 100%; in series [3] (Corn Plant Hopper, rate 100 ppm), 100%; in series [3] (Corn Plant Hopper, rate 1000 ppm), 100%. Moreover, the “% mortality (obs)” value turned out to be 90% in series [5] (setting [15]); 100% in series [5] (rate 500 ppm, single compound, spray, 7 days); 100% in series [5] (rate 1000 ppm, single compound, spray, 7 days); 100% in series [6] (rate 0.08 ppm); 100% in series [6] (rate 0.4 ppm); 100% in series [6] (rate 2 ppm). Moreover, the “% mortality (obs)” value in series [1] (rate 10 ppm, alone) is reported as 93%; in series [1] (rate 100 ppm, alone) it was 100%; in series [1] (rate 1000 ppm, alone), 100%.
Consider Dinotefuran, for which the figures for the “% mortality (obs)” value in series [3] (in vivo), in series [5] (in vivo) and in series [1] (in vivo) were 5%, 50% and 7%, respectively.
In the case of Lambda-cyhalothrin, the figures for the “% mortality (obs)” value in series [3] (in vivo) and in series [5] (in vivo) were 7% and 40%, respectively.
